Reference: ChEMBL document CHEMBL1667732, “The diarylheptanoid (+)-aR,11S-myricanol and two flavones from bayberry (Myrica cerifera) destabilize the microtubule-associated protein tau” (J Nat Prod, 2011)
Activity calls are given as the source filed them. No cut-off for these calls is given here.

Columns and labels:
[1] = Cytotoxicity against human IMR32 cells by LDH release assay; assay type: cell-based; details: imr-32
[2] = system: HeLa-C3; test: Destabilization of microtubule-associated protein tau protein in human HeLa-C3 cells assessed as reduction in tau protein level at 50 to 250 uM; assay type: cell-based
[3] = organism: Mus musculus; test: Destabilization of microtubule-associated protein tau protein in mouse brain slice assessed as reduction in tau protein level at 50 to 250 uM; assay type: tissue-based
[4] = Cytotoxicity against human HeLaC3 cells by LDH release assay; assay type: cell-based; details: hela c3
[5] = system: IMR-32; test: Destabilization of microtubule-associated protein tau protein in human IMR32 cells assessed as reduction in tau protein level at 50 to 250 uM; assay type: cell-based

COc1c2cc(c(O)c1OC)CCCC[C@H](O)CCc1ccc(O)c-2c1
Activity [1]: Non-toxic
Activity [2]: Active
Activity [3]: Active
Activity [4]: Non-toxic
Activity [5]: Active
